Test results taken from the NIST ThermoML archive (doi:10.1021/je9001653).
“And” between values parts separate entries of the source, which are not always exact repeats. Equal values may be shown once.

c1ccc2cc3ccccc3cc2c1 [anthracene]
Crystal
Conditions	vapor or sublimation pressure
339.25 K	0.000104 kPa
348.35 K	0.000289 kPa
360.45 K	0.000978 kPa
365.66 K	0.00158 kPa
373.95 K	0.00311 kPa
376.95 K	0.00358 kPa
379.55 K	0.00416 kPa
386.45 K	0.00813 kPa
389.05 K	0.00875 kPa and 0.00962 kPa
392.95 K	0.01486 kPa
393.75 K	0.01211 kPa and 0.01243 kPa
398.05 K	0.01765 kPa
398.55 K	0.01813 kPa and 0.0185 kPa

CC(=O)[CH-]C(C)=O.CC(=O)[CH-]C(C)=O.[Cu+2] [bis(2,4-pentanedionato-O,O')copper]
Crystal
Conditions	vapor or sublimation pressure [kPa]
367.65 K	2.2e-05
372.42 K	3.9e-05
376.95 K	6.8e-05
381.83 K	0.00011
386.45 K	0.000172
388.98 K	0.000201
395.55 K	0.000398
398.5 K	0.000601
400.64 K	0.000705
403.26 K	0.000875
405.05 K	0.00118
414.35 K	0.00257
417.53 K	0.00387
423.85 K	0.00479
433.65 K	0.00927
442.85 K	0.0199

c1cc2ccc3cccc4ccc(c1)c2c34 [pyrene]
Crystal 1
Conditions	vapor or sublimation pressure [kPa]
341.45 K	7.5e-05
351.05 K	0.000171
369.85 K	0.000882
373.95 K	0.00147
379.55 K	0.00197
383.95 K	0.00472
389.05 K	0.00539
392.95 K	0.00846
398.55 K	0.01067
402.05 K	0.01662
408.05 K	0.02731
